Source: patent publication US20090209560A1, “ANTI-INFLAMMATION ACTIVITY OF NEWLY SYNTHESIZED XANTHINE DERIVATIVES KMUP-1 AND KMUP-3” (KAOHSIUNG MEDICAL UNIVERSITY, priority 2006, published 2009)

Key:
Type in all cases: cell-based, rat
iNOS = iNOS protein expression by immunoblotting in TNF-α-exposed TSMCs; conditions: TSMCs with TNF-α 100 ng/ml
Description: (§1) The tracheal smooth muscle cell (TSM) culture is prepared from male Wistar rats purchased from the National Laboratory Animal Breeding and Research Center (Taipei, Taiwan).
(§2) The Wistar rats were injected intraperitoneally with a lethal dose of pentobarbital. The tracheas were excised and cut longitudinally through the cartilage. Using a dissecting microscope, TSM strips were dissected from the surrounding parenchyma. The epithelium was removed from the luminal surface, and bands of TSM were gently separated from the underlying connective tissue. The TSM strips were then chopped into small sections (1 mm^3) and incubated in Hank's balanced salt solution (NaCl, 138 mM; NaHCO3, 4 mM; KCl, 5 mM; KH2PO4, 0.3 mM; Na2HPO4, 0.3 mM; glucose, 1.0 mM) with 0.05% elastase type IV and 0.2% collagenase type IV (Invitrogen, Carlsbad, Calif.) for 30 min at 37° C. with gentle shaking. The solution of dissociated smooth muscle cells was centrifuged (6 min at 500 g) and the pellet was resuspended in 1:1 Dulbecco's modified Eagle's medium-Ham's F-12 medium supplemented with 10% fetal bovine serum (FBS), 0.244% NaHCO3, and 1% penicillin/streptomycin. Cells were cultured in a condition with or without KMUP-1, KMUP-3 and other negative or positive control agents, in 25 cm^2 flasks at 37° C. in humidified air containing 5% CO2. The medium was changed every 2-3 days.
(§3) To investigate the effects of TNF-α on iNOS and sGC proteins, TSMCs were incubated with TNF-α (100 ng/ml) for 1, 3, 6, 9, 12, 18 and 24 hr, and the levels of iNOS and sGC subunit proteins were measured by immunoblotting. […] In contrast to the increase expression of iNOS protein in FIG. 2, TNF-α in FIG. 3 decreased the expression of sGCα1 and sGCβ1 proteins in a time-dependent manner, with the maximal inhibition achieved at 9 hr. To investigate the effects of KMUP-1, KMUP-3, and the other PDE5 inhibitors zaprinast and exogenous 8-Br-cGMP on the TNF-α mediated pathway, TSMCs were incubated with TNF-α (100 ng/ml) and either one of the mentioned chemicals.

sGCα1 and sGCβ1 proteins = assay: sGC subunit protein expression by immunoblotting in TNF-α-exposed TSMCs; conditions: 10 μM; TSMCs with TNF-α 100 ng/ml; FIG. 5
Description: as §1, §2, §3

PKG = PKG protein expression by immunoblotting in TNF-α-exposed TSMCs; conditions: TSMCs with TNF-α 100 ng/ml; for effect on TNF-α-induced decreases of PKG protein: 10 μM, FIG. 8; for effect on TNF-α-induced decreases of PKG protein expression: concentration series, FIG. 7(B) as cited in text
Description: as §1, §2
(§4) To investigate the effects of TNF-α on PKG and PKA proteins, TSMCs were incubated with TNF-α (100 ng/ml) for 1, 3, 6, 9, 12, 18 and 24 hr, and the levels of PKG and PKA proteins were measured by immunoblotting. […] To investigate the effects of KMUP-1, KMUP-3, and the other PDE5 inhibitors zaprinast and exogenous 8-Br-cGMP on the TNF-α mediated pathway, TSMCs were incubated with TNF-α (100 ng/ml) and either one of the mentioned chemicals.

PKA = PKA protein expression by immunoblotting in TNF-α-exposed TSMCs; conditions: TSMCs with TNF-α 100 ng/ml; for effect on TNF-α-induced increases of PKA protein: 10 μM, FIG. 8; for effect on TNF-α-increased expression of PKA protein: 0.1-100 μM, FIG. 7(A) as cited in text
Description: as §1, §2, §4

COX-2 = COX-2 protein expression by immunoblotting in TNF-α-exposed TSMCs; conditions: TSMCs with TNF-α 100 ng/ml, FIG. 9(B)
Description: The Wistar rats were injected intraperitoneally with a lethal dose of pentobarbital. The tracheas were excised and cut longitudinally through the cartilage. Using a dissecting microscope, TSM strips were dissected from the surrounding parenchyma. The epithelium was removed from the luminal surface, and bands of TSM were gently separated from the underlying connective tissue. The TSM strips were then chopped into small sections (1 mm^3) and incubated in Hank's balanced salt solution (NaCl, 138 mM; NaHCO3, 4 mM; KCl, 5 mM; KH2PO4, 0.3 mM; Na2HPO4, 0.3 mM; glucose, 1.0 mM) with 0.05% elastase type IV and 0.2% collagenase type IV (Invitrogen, Carlsbad, Calif.) for 30 min at 37° C. with gentle shaking. The solution of dissociated smooth muscle cells was centrifuged (6 min at 500 g) and the pellet was resuspended in 1:1 Dulbecco's modified Eagle's medium-Ham's F-12 medium supplemented with 10% fetal bovine serum (FBS), 0.244% NaHCO3, and 1% penicillin/streptomycin. […] The medium was changed every 2-3 days.
To investigate the effects of TNF-α on COX-2 protein, TSMCs were respectively incubated with or without TNF-α (100 ng/ml) for 1, 3, 6, 9, 12, 18 and 24 hr, and the levels of COX-2 proteins were measured by immunoblotting.

cGMP = assay: Intracellular cGMP level in TSMCs (radioimmunoassay); conditions: 10 μM, 20 min pretreatment, then TNF-α 100 ng/ml for 9 hrs; FIG. 10(A)
Description: as §1
as §2, with “Cells were cultured in a condition with or without KMUP-1, KMUP-3 and other negative or positive control agents, in 25 cm^2 flasks at 37° C. in humidified air containing 5% CO2. The medium was changed every 2-3 days.” left out
Intracellular cGMP production was decreased and reaching minimal production at 9 hr in TSMCs in the presence of TNF-α (100 ng/ml). Intracellular concentrations of cAMP and cGMP in TSMC were measured to investigate the effects of KMUP-1, KMUP-3, and the other PDE5 inhibitor zaprinast or the isoproterenol thereto. […] The concentrations of cGMP of each sample were measured using cGMP-[125I] radioimmunoassay kits (GE Healthcare Bio-Sciences Corp., Piscataway, N.J.). […] As to the level of the cAMP, TSMCs were incubated with isoproterenol, KMUP-1, and KMUP-3 for 20 min, and further incubated in the absence or presence of TNF-α (100 ng/ml) for 9 hrs, where the concentrations of cAMP of each sample were measured using cAMP-[125I] radioimmunoassay kits (GE Healthcare Bio-Sciences Corp., Piscataway, N.J.).

cAMP = assay: Intracellular cAMP level in TSMCs (radioimmunoassay); conditions: FIG. 10(B)
Description: as §1, §2
Intracellular cGMP production was decreased and reaching minimal production at 9 hr in TSMCs in the presence of TNF-α (100 ng/ml). Intracellular concentrations of cAMP and cGMP in TSMC were measured to investigate the effects of KMUP-1, KMUP-3, and the other PDE5 inhibitor zaprinast or the isoproterenol thereto. As to the level of cGMP, TSMCs were pretreated with KMUP-1, KMUP-3, and the other PDE5 inhibitor zaprinast for 20 minutes and were further incubated in the presence of TNF-α (100 ng/ml) for 9 hrs. The concentrations of cGMP of each sample were measured using cGMP-[125I] radioimmunoassay kits (GE Healthcare Bio-Sciences Corp., Piscataway, N.J.). […] As to the level of the cAMP, TSMCs were incubated with isoproterenol, KMUP-1, and KMUP-3 for 20 min, and further incubated in the absence or presence of TNF-α (100 ng/ml) for 9 hrs, where the concentrations of cAMP of each sample were measured using cAMP-[125I] radioimmunoassay kits (GE Healthcare Bio-Sciences Corp., Piscataway, N.J.).

nitrite/nitrate (NO) = assay: NO level measured by nitrite/nitrate in TSMC culture medium (colorimetric assay); conditions: 10 μM, 20 min pretreatment, then TNF-α 100 ng/ml for 9 hrs; FIG. 11
Description: as §1, §2
Exposure of TSMCs to TNF-α (100 ng/ml) for 9 hrs led to accumulation of nitrite and nitrate in the culture medium, indicating the release of NO. Please refer to the FIG. 11, TSMCs were pretreated with KMUP-1, KMUP-3, 8-Br-cGMP and zaprinast for 20 minutes, and were further incubated in the presence of TNF-α (100 ng/ml) for 9 hrs. The concentrations of nitrite and nitrate (stable breakdown product of NO) of each sample were analyzed using nitrite/nitrate colorimetric assay kits (Cayman Chemical Co.) and run in duplicate.

PGE2 and 6-keto-PGF1a = PGE2 and 6-keto-PGF1a release from TNF-α-exposed TSMCs (EIA); conditions: 10 μM, 20 min pretreatment, then TNF-α 100 ng/ml for 24 hrs; FIG. 12
Description: as §1, §2
Incubation of TSMCs with TNF-α (100 ng/ml) increased the releases of PGs, PGE2 and 6-keto-PGF1a, a PGI2 stable metabolite, and the greatest increases occurred were measured at 24 hr. Please refer to the FIG. 12, TSMCs were pretreated with KMUP-1 (10 μM), KMUP-3 (10 μM), dexamethasone (1 μM) and zaprinast (10 μM) for 20 minutes, and were further incubated in the presence of TNF-α (100 ng/ml) for 24 hrs, where the concentrations of PGE2 and 6-keto-PGF1a (stable metabolite of […]) in the culture medium were measured using PGE2 and 6-keto-PGF1a EIA assay kits (Cayman Chemical Co., Ann Arbor, Mich.) in duplicate.

[1] = in the presence of TNF-α 100 ng/ml for 9 hrs

Cn1c(=O)c2c(ncn2CCN2CCN(c3ccccc3Cl)CC2)n(C)c1=O [KMUP-1, 7-[2-[4-(2-chlorobenzene)piperazinyl]ethyl]-1,3-dimethylxanthine]
effect on TNF-α-induced increases of iNOS expression (iNOS; 10 μM, FIG. 4(B)): inhibited TNF-α-induced increases of iNOS expression to a similar extent | effect on TNF-α-induced increases of iNOS expression (iNOS; 0.01-100 μM, FIG. 4(A)): inhibited TNF-α-induced increases of iNOS expression in a concentration-dependent manner | effect on TNF-α inhibition of sGCα1 and sGCβ1 protein expression (sGCα1 and sGCβ1 proteins): reversed | effect on TNF-α-induced decreases of PKG protein (PKG): reversed TNF-α-induced decreases of PKG protein | effect on TNF-α-induced decreases of PKG protein expression (PKG): reversed | effect on TNF-α-induced increases of PKA protein (PKA): could not affect TNF-α-induced increases of PKA protein | effect on TNF-α-increased expression of PKA protein (PKA): not further increased | inhibition of TNF-α-induced COX-2 expression (COX-2): not | effect on TNF-α-decreased intracellular cGMP (cGMP): reversed to the basal level | production of cAMP compared to the control group (cAMP; 10 μM, in the absence of TNF-α): significantly increased | production of cAMP compared to the control group (cAMP; [1]): could not further increase | effect on TNF-α-induced production of nitrite/nitrate (NO levels) (nitrite/nitrate (NO)): inhibited | effect on TNF-α-induced PGE2 and 6-keto-PGF1a formation (PGE2 and 6-keto-PGF1a): did not inhibit

CS(=O)(=O)Nc1ccc([N+](=O)[O-])cc1OC1CCCCC1 [NS-398, reference compound]
inhibition of TNF-α-induced COX-2 expression (COX-2; 10 μM pretreatment): significantly inhibit | effect on TNF-α-induced PGE2 and 6-keto-PGF1a formation (PGE2 and 6-keto-PGF1a): significantly inhibited

CCCOc1ccccc1-c1nc2nn[nH]c2c(=O)[nH]1 [zaprinast, reference compound]
effect on TNF-α-induced increases of iNOS expression (iNOS; 10 μM, FIG. 4(B)): inhibited TNF-α-induced increases of iNOS expression to a similar extent | effect on TNF-α inhibition of sGCα1 and sGCβ1 protein expression (sGCα1 and sGCβ1 proteins): reversed | effect on TNF-α-induced decreases of PKG protein (PKG): reversed TNF-α-induced decreases of PKG protein | effect on TNF-α-induced increases of PKA protein (PKA): could not affect TNF-α-induced increases of PKA protein | effect on TNF-α-decreased intracellular cGMP (cGMP): reversed to the basal level | effect on TNF-α-induced production of nitrite/nitrate (NO levels) (nitrite/nitrate (NO)): inhibited

Nc1ncnc2c1nc(Br)n2[C@@H]1O[C@@H]2COP(=O)(O)O[C@H]2[C@H]1O [8-Br-cAMP, reference compound]
effect on TNF-α-induced increases of PKA protein (PKA): could not affect TNF-α-induced increases of PKA protein

Nc1nc2c(nc(Br)n2[C@@H]2O[C@@H]3COP(=O)(O)O[C@H]3[C@H]2O)c(=O)[nH]1 [8-Br-cGMP, reference compound]
effect on TNF-α-induced increases of iNOS expression (iNOS; 10 μM, FIG. 4(B)): inhibited TNF-α-induced increases of iNOS expression to a similar extent | effect on TNF-α inhibition of sGCα1 and sGCβ1 protein expression (sGCα1 and sGCβ1 proteins): reversed | effect on TNF-α-induced decreases of PKG protein (PKG): reversed TNF-α-induced decreases of PKG protein | effect on TNF-α-induced production of nitrite/nitrate (NO levels) (nitrite/nitrate (NO)): inhibited

CC(C)NCC(O)c1ccc(O)c(O)c1 (stereo not shown) [isoproterenol, reference compound]
production of cAMP compared to the control group (cAMP; 10 μM, in the absence of TNF-α): significantly increased

Cn1c(=O)c2c(ncn2CCN2CCN(c3ccc([N+](=O)[O-])cc3)CC2)n(C)c1=O [KMUP-3, 7-[2-[4-(4-nitrobenzene)piperazinyl]ethyl]-1,3-dimethylxanthine]
effect on TNF-α-induced increases of iNOS expression (iNOS; 10 μM, FIG. 4(B)): inhibited TNF-α-induced increases of iNOS expression to a similar extent | effect on TNF-α-induced increases of iNOS expression (iNOS; 0.01-100 μM, FIG. 4(A)): inhibited TNF-α-induced increases of iNOS expression in a concentration-dependent manner | effect on TNF-α inhibition of sGCα1 and sGCβ1 protein expression (sGCα1 and sGCβ1 proteins): reversed | effect on TNF-α-induced decreases of PKG protein (PKG): reversed TNF-α-induced decreases of PKG protein | effect on TNF-α-induced decreases of PKG protein expression (PKG): reversed | effect on TNF-α-induced increases of PKA protein (PKA): could not affect TNF-α-induced increases of PKA protein | effect on TNF-α-increased expression of PKA protein (PKA): not further increased | inhibition of TNF-α-induced COX-2 expression (COX-2): not | effect on TNF-α-decreased intracellular cGMP (cGMP): reversed to the basal level | production of cAMP compared to the control group (cAMP; 10 μM, in the absence of TNF-α): significantly increased | production of cAMP compared to the control group (cAMP; [1]): could not further increase | effect on TNF-α-induced production of nitrite/nitrate (NO levels) (nitrite/nitrate (NO)): inhibited | effect on TNF-α-induced PGE2 and 6-keto-PGF1a formation (PGE2 and 6-keto-PGF1a): did not inhibit
